# Results published in US20260070945A1, “MACROCYCLIC IMMUNOMODULATORS” (Bristol-Myers Squibb Company, priority 2022, published 2026).
# *1 amine or outer side, *2 acyl side, *3 side chain or, on linkers, in order; H or OH if unused. Where a SMILES comes first, the peptide text is derived from it. Bridges are numbered along the chain shown (N, C = ends). [ ]: non-standard residue; d: D form. The star is where a group is joined. ξ: configuration not given here. Phe(3-CF3) = N[C@@H](Cc1cccc(C(F)(F)F)c1)C(=O)O; Phe(4-CF3) = N[C@@H](Cc1ccc(C(F)(F)F)cc1)C(=O)O; Phe(4-COOH) = N[C@@H](Cc1ccc(C(=O)O)cc1)C(=O)O; Bip = N[C@@H](Cc1ccc(-c2ccccc2)cc1)C(=O)O; Phe(3-CN) = N#Cc1cccc(C[C@H](N)C(=O)O)c1; Phe(3-Me) = Cc1cccc(C[C@H](N)C(=O)O)c1; γGlu = O=C(O)[C@H](CCC(=O)[*:2])N[*:1]; NH(CH2)12COOH = O=C(O)CCCCCCCCCCCCN*; NMeAEEA = CN(CCOCCOCC(=O)[*:2])[*:1]; Val(3-OH) = CC(C)(O)[C@H](N)C(=O)O; 4Pal = N[C@@H](Cc1ccncc1)C(=O)O; Cha = N[C@@H](CC1CCCCC1)C(=O)O; Cit = NC(=O)NCCC[C@H](N)C(=O)O; Ile(3ξ) = CCC(C)[C@H](N)C(=O)O; Thr(3ξ) = CC(O)[C@H](N)C(=O)O; Carboxymethyl = O=C(O)C*; NMeA = CN[C@@H](C)C(=O)O; Nle = CCCC[C@H](N)C(=O)O; Orn = NCCC[C@H](N)C(=O)O; Aun = NCCCCCCCCCCC(=O)O; Dab = NCC[C@H](N)C(=O)O; Dap = NC[C@H](N)C(=O)O; AEEA = NCCOCCOCC(=O)O
# Target: T1, PD-1/PD-L1 interaction (PE-labeled human PD-L1-Ig binding to Jurkat cell line over-expressing human PD-1) (Homo sapiens, UniProt Q15116)
# T1 construct: expressed in transfected cells; host or cells: Jurkat
# Experiment: Jurkat-PD-1 Cell Binding High-Content Screening Assay (CBA)
# Settings: Jurkat-hPD-1 cells, PE-labeled PD-L1-Ig 20 nM final; read-out: Jurkat HPD1 PDL1 IC50
# Procedure, shortened: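 Binding of 20 nM (final) PE-tagged PD-L1-Ig to compound-pretreated Jurkat-hPD-1 cells was measured by high-content imaging after 1 h. Pretreatment ran 2 h at 37 °C in DMEM with 10% fetal calf serum.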
# T1 sequence (Q15116 25-288): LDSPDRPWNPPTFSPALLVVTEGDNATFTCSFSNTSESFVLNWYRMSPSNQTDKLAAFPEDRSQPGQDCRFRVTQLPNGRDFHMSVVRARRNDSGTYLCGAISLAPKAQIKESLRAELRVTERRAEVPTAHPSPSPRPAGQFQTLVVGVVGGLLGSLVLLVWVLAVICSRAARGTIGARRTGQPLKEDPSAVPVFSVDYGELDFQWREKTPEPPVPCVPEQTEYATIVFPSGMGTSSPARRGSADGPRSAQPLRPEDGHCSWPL
row,IC50,SMILES
1,0.0883 µM,CCCC[C@@H]1NC(=O)CSC[C@@H](C(=O)N[C@@H](CCN)C(=O)NCCOCCOCC(=O)N[C@@H](CCC(=O)NCCOCCOCC(=O)NCCCCCCCCCCCCC(=O)O)C(=O)O)NC(=O)[C@H](CCC(=O)O)NC(=O)[C@H](C(C)C)NC(=O)[C@H](CC2CCCCC2)NC(=O)[C@H](CCN)NC(=O)[C@@H](CC(C)C)NC(=O)[C@H](C)N(C)C(=O)[C@H](Cc2ccc(OCC(=O)O)cc2)NC(=O)[C@H](Cc2ccc(-c3ccccc3)cc2)NC(=O)[C@H](Cc2ccc(OCC(=O)O)cc2)NC(=O)[C@H](Cc2cccc(C)c2)NC(=O)[C@H](CC(=O)O)NC(=O)[C@H](Cc2ccc(OCC(=O)O)cc2)NC1=O [Example 2011] ({CH2CO}-[Nle]Y(Carboxymethyl)D[Phe(3-Me)]Y(Carboxymethyl)[Bip]Y(Carboxymethyl)[NMeA][dL][Dab][Cha]VEC[Dab][AEEA][γGlu][AEEA]-{NH(CH2)12COOH}; thioether N-14)
2,0.0239 µM,Cc1cccc(C[C@@H]2NC(=O)[C@H](CC(=O)O)NC(=O)[C@H](Cc3ccc(OCC(=O)O)cc3)NC(=O)[C@H](CCN)NC(=O)CSC[C@@H](C(=O)N[C@@H](CCN)C(=O)NCCCCCCCCCCC(=O)O)NC(=O)[C@H](CO)NC(=O)[C@H](C(C)(C)O)NC(=O)[C@H](CC3CCCCC3)NC(=O)[C@H](CCN)NC(=O)[C@@H](CC(C)C)NC(=O)[C@H](C)N(C)C(=O)[C@H](Cc3ccc(OCC(=O)O)cc3)NC(=O)[C@H](Cc3ccc(-c4ccccc4)cc3)NC(=O)[C@H](Cc3cccc(C#N)c3)NC2=O)c1 [Example 1306] ({CH2CO}-[Dab]Y(Carboxymethyl)D[Phe(3-Me)][Phe(3-CN)][Bip]Y(Carboxymethyl)[NMeA][dL][Dab][Cha][Val(3-OH)]SC[Dab][Aun]-OH; thioether N-14)
3,0.0085 µM,CC(C)C[C@@H]1NC(=O)[C@H](Cc2c[nH]c3ccccc23)NC(=O)[C@H](CC(=O)O)NC(=O)[C@H](Cc2ccc(C(=O)O)cc2)NC(=O)[C@H](Cc2ccc(OCC(=O)O)cc2)NC(=O)CSC[C@@H](C(=O)N[C@@H](CCCN)C(=O)NCCOCCOCC(=O)NCCCCCCCCCCC(=O)O)NC(=O)[C@H](CCCCN)NC(=O)[C@H](C(C)C)NC(=O)[C@H](CC2CCCCC2)NC(=O)[C@H](CCN)NC(=O)[C@@H](CC(C)C)NC(=O)[C@H](C)N(C)C(=O)[C@H](C(C)C)NC(=O)[C@H](Cc2ccc(-c3ccccc3)cc2)NC1=O [Example 2151] ({CH2CO}-Y(Carboxymethyl)[Phe(4-COOH)]DWL[Bip]V[NMeA][dL][Dab][Cha]VKC[Orn][AEEA][Aun]-OH; thioether N-14)
4,0.015 µM,CCC(C)[C@@H]1NC(=O)[C@H](Cc2ccc(-c3ccccc3)cc2)NC(=O)[C@H](C(C)C)NC(=O)[C@H](Cc2c[nH]c3ccccc23)NC(=O)[C@H](CC(=O)O)NC(=O)[C@H](Cc2ccc(OCC(=O)O)cc2)NC(=O)[C@H](Cc2ccncc2)NC(=O)CSC[C@@H](C(=O)N[C@@H](CCCCN)C(=O)NCCOCCOCC(=O)NCCCCCCCCCCC(=O)O)NC(=O)[C@H](C(C)O)NC(=O)[C@H](C(C)C)NC(=O)[C@H](CC2CCCCC2)NC(=O)[C@H](CCN)NC(=O)[C@@H](CC(C)C)NC(=O)[C@H](C)N(C)C1=O (stereo partly drawn) [Example 2105] ({CH2CO}-[4Pal]Y(Carboxymethyl)DWV[Bip][Ile(3ξ)][NMeA][dL][Dab][Cha]V[Thr(3ξ)]CK[AEEA][Aun]-OH; thioether N-14)
5,0.0453 µM,Cc1cccc(C[C@@H]2NC(=O)[C@H](CC(=O)O)NC(=O)[C@H](Cc3ccc(OCC(=O)O)cc3)NC(=O)[C@H](C(C)O)NC(=O)CSC[C@@H](C(=O)N(C)CCOCCOCC(=O)NCCCCCCCCCCC(=O)O)NC(=O)[C@H](C(C)C)NC(=O)[C@H](C(C)C)NC(=O)[C@H](CC3CCCCC3)NC(=O)[C@H](CCN)NC(=O)[C@@H](CC(C)C)NC(=O)[C@H](C)N(C)C(=O)[C@H](CCCNC(N)=O)NC(=O)[C@H](Cc3ccc(-c4ccccc4)cc3)NC(=O)[C@H](C(C)C)NC2=O)c1 (stereo partly drawn) [Example 2355] ({CH2CO}-[Thr(3ξ)]Y(Carboxymethyl)D[Phe(3-Me)]V[Bip][Cit][NMeA][dL][Dab][Cha]VVC[NMeAEEA][Aun]-OH; thioether N-14)
6,0.0131 µM,CC(C)C[C@H]1NC(=O)[C@H](C)N(C)C(=O)[C@H](C(C)C)NC(=O)[C@H](Cc2ccc(-c3ccccc3)cc2)NC(=O)[C@H](C(C)C)NC(=O)[C@H](Cc2c[nH]c3ccccc23)NC(=O)[C@H](CC(=O)O)NC(=O)[C@H](Cc2ccc(OCC(=O)O)cc2)NC(=O)[C@H](Cc2ccc(OCC(=O)O)cc2)NC(=O)CSC[C@@H](C(=O)NCCOCCOCC(=O)NCCCCCCCCCCC(=O)O)NC(=O)[C@H](CO)NC(=O)[C@H](C(C)C)NC(=O)[C@H](CC2CCCCC2)NC(=O)[C@H](CCN)NC1=O [Example 2453] ({CH2CO}-Y(Carboxymethyl)Y(Carboxymethyl)DWV[Bip]V[NMeA][dL][Dab][Cha]VSC[AEEA][Aun]-OH; thioether N-14)
7,0.0585 µM,Cc1cccc(C[C@@H]2NC(=O)[C@H](CC(=O)O)NC(=O)[C@H](Cc3ccc(C(=O)O)cc3)NC(=O)[C@H](Cc3ccc(OCC(=O)O)cc3)NC(=O)CSC[C@@H](C(=O)NCC(=O)N[C@@H](CC(=O)O)C(=O)NCCOCCOCC(=O)N[C@@H](CCC(=O)NCCOCCOCC(=O)NCCCCCCCCCCC(=O)O)C(=O)O)NC(=O)[C@H](CO)NC(=O)[C@H](C(C)C)NC(=O)[C@H](CC(C)C)NC(=O)[C@H](CC(N)=O)NC(=O)[C@@H](CC(C)C)NC(=O)[C@H](C)N(C)C(=O)[C@H](C(C)C)NC(=O)[C@H](Cc3ccc(-c4ccccc4)cc3)NC(=O)[C@H](CC(C)C)NC2=O)c1 [Example 1019] ({CH2CO}-Y(Carboxymethyl)[Phe(4-COOH)]D[Phe(3-Me)]L[Bip]V[NMeA][dL]NLVSCGD[AEEA][γGlu][AEEA][Aun]-OH; thioether N-14)
8,0.0158 µM,CC(C)C[C@@H]1NC(=O)[C@H](Cc2c[nH]c3ccccc23)NC(=O)[C@H](CC(=O)O)NC(=O)[C@H](Cc2ccncc2)NC(=O)[C@H](Cc2ccc(OCC(=O)O)cc2)NC(=O)CSC[C@@H](C(=O)N[C@@H](CCCCN)C(=O)NCCCCCCCCCCC(=O)O)NC(=O)[C@H](CN)NC(=O)[C@H](C(C)C)NC(=O)[C@H](CC2CCCCC2)NC(=O)[C@H](CCN)NC(=O)[C@@H](CC(C)C)NC(=O)[C@H](C)N(C)C(=O)[C@H](C(C)C)NC(=O)[C@H](Cc2ccc(-c3ccccc3)cc2)NC1=O [Example 1349] ({CH2CO}-Y(Carboxymethyl)[4Pal]DWL[Bip]V[NMeA][dL][Dab][Cha]V[Dap]CK[Aun]-OH; thioether N-14)
9,0.0132 µM,CCC(C)[C@@H]1NC(=O)[C@H](Cc2ccc(-c3ccccc3)cc2)NC(=O)[C@H](C(C)C)NC(=O)[C@H](Cc2c[nH]c3ccccc23)NC(=O)[C@H](CC(=O)O)NC(=O)[C@H](Cc2ccc(OCC(=O)O)cc2)NC(=O)[C@H](C(C)O)NC(=O)CSC[C@@H](C(=O)NCCOCCOCC(=O)N[C@@H](CCCCN)C(=O)NCCCCCCCCCCC(=O)O)NC(=O)[C@H](CO)NC(=O)[C@H](C(C)C)NC(=O)[C@H](CC2CCCCC2)NC(=O)[C@H](CCN)NC(=O)[C@@H](CC(C)C)NC(=O)[C@H](C)N(C)C1=O (stereo partly drawn) [Example 2030] ({CH2CO}-[Thr(3ξ)]Y(Carboxymethyl)DWV[Bip][Ile(3ξ)][NMeA][dL][Dab][Cha]VSC[AEEA]K[Aun]-OH; thioether N-14)

# Same assay, conditions: PE-labeled PD-L1-Ig 20 nM final, Jurkat-hPD-1 cells; read-out: Jurkat HPD1 PDL1 IC50
row,IC50,SMILES
1,0.0342 µM,Cc1cccc(C[C@@H]2NC(=O)[C@H](CC(=O)O)NC(=O)[C@H](Cc3ccc(OCC(=O)O)cc3)NC(=O)[C@H](C(C)O)NC(=O)CSC[C@@H](C(=O)N[C@@H](CCN)C(=O)NCCCCCCCCCCC(=O)O)NC(=O)[C@H](CO)NC(=O)[C@H](C(C)(C)O)NC(=O)[C@H](CC3CCCCC3)NC(=O)[C@H](CCN)NC(=O)[C@@H](CC(C)C)NC(=O)[C@H](C)N(C)C(=O)[C@H](Cc3ccc(OCC(=O)O)cc3)NC(=O)[C@H](Cc3ccc(-c4ccccc4)cc3)NC(=O)[C@H](Cc3ccc(C(=O)O)cc3)NC2=O)c1 (stereo partly drawn) [Example 2430] ({CH2CO}-[Thr(3ξ)]Y(Carboxymethyl)D[Phe(3-Me)][Phe(4-COOH)][Bip]Y(Carboxymethyl)[NMeA][dL][Dab][Cha][Val(3-OH)]SC[Dab][Aun]-OH; thioether N-14)
2,0.0224 µM,CC(=O)NCCCC[C@@H]1NC(=O)[C@H](C(C)(C)O)NC(=O)[C@H](CC2CCCCC2)NC(=O)[C@H](CCN)NC(=O)[C@@H](CC(C)C)NC(=O)[C@H](C)N(C)C(=O)[C@H](CCC(N)=O)NC(=O)[C@H](Cc2ccc(-c3ccccc3)cc2)NC(=O)[C@H](Cc2ccc(C(F)(F)F)cc2)NC(=O)[C@H](Cc2cccc(C)c2)NC(=O)[C@H](CC(=O)O)NC(=O)[C@H](Cc2ccc(OCC(=O)O)cc2)NC(=O)[C@H](Cc2ccc(OCC(=O)O)cc2)NC(=O)CSC[C@@H](C(=O)N[C@@H](CCN)C(=O)NCCCCCCCCCCCCC(=O)O)NC1=O [Example 2621] ({CH2CO}-Y(Carboxymethyl)Y(Carboxymethyl)D[Phe(3-Me)][Phe(4-CF3)][Bip]Q[NMeA][dL][Dab][Cha][Val(3-OH)]K(Ac)C[Dab]-{NH(CH2)12COOH}; thioether N-14)
3,0.0026 µM,CC(=O)NCCCC[C@@H]1NC(=O)[C@H](C(C)(C)O)NC(=O)[C@H](CC2CCCCC2)NC(=O)[C@H](CCN)NC(=O)[C@@H](CC(C)C)NC(=O)[C@H](C)N(C)C(=O)[C@H](CCC(N)=O)NC(=O)[C@H](Cc2ccc(-c3ccccc3)cc2)NC(=O)[C@H](Cc2ccc(C(=O)O)cc2)NC(=O)[C@H](Cc2cccc(C(F)(F)F)c2)NC(=O)[C@H](CC(=O)O)NC(=O)[C@H](Cc2ccc(OCC(=O)O)cc2)NC(=O)[C@H](Cc2ccc(OCC(=O)O)cc2)NC(=O)CSC[C@@H](C(=O)N[C@@H](CCN)C(=O)NCCOCCOCC(=O)NCCCCCCCCCCC(=O)O)NC1=O [Example 2579] ({CH2CO}-Y(Carboxymethyl)Y(Carboxymethyl)D[Phe(3-CF3)][Phe(4-COOH)][Bip]Q[NMeA][dL][Dab][Cha][Val(3-OH)]K(Ac)C[Dab][AEEA][Aun]-OH; thioether N-14)
